# Laboratory results: ChEMBL document CHEMBL5154681, “Small Amphiphilic Peptides: Activity Against a Broad Range of Drug-Resistant Bacteria and Structural Insight into Membranolytic Properties” (J Med Chem, 2022)
# Active and inactive are the calls of the source. The calls are words filed in the database; no cut-off is given here. Bridge positions count the residues as written; N and C are the ends. Square brackets hold non-standard residues; d marks the D form. Peptide text beside a SMILES is read from it. * marks the point of attachment. Dip = N[C@H](C(=O)O)C(c1ccccc1)c1ccccc1; 2Nal = N[C@@H](Cc1ccc2ccccc2c1)C(=O)O; X1 = CC[C@H](C)CCCCC(=O)*; Dab = NCC[C@H](N)C(=O)O
# Columns and labels:
# Escherichia coli [1] = assay: Antibacterial activity against Escherichia coli ATCC 25922 assessed as reduction in microbial growth after 24 hrs in presence of 6 mM of NH4Cl at by microtiter plate method; format: functional
# Escherichia coli [2] = assay: Antibacterial activity against Escherichia coli ATCC 25922 after 24 hrs in presence of 1 mM of MgCl2 at by microtiter plate method; format: functional
# Staphylococcus aureus [3] = assay: Bactericidal activity against methicillin resistant Staphylococcus aureus ATCC BAA-1556 assessed as reduction of bacterial growth at MIC by counting formed colonies; format: functional, organism-based; conditions: time <= 4.0 hrs, TDE = time-dependent effect
# Pseudomonas aeruginosa [4] = assay: Antibacterial activity against Pseudomonas aeruginosa ATCC 10145 incubated for 24 hrs by microtiter plate method; format: functional
# Klebsiella pneumoniae [5] = assay: Antibacterial activity against carbapenem-resistant Klebsiella pneumoniae ATCC BAA-2470 incubated for 24 hrs by microtiter plate method; format: functional
# Escherichia coli [6] = assay: Bactericidal activity against Escherichia coli ATCC BAA-2452 assessed as reduction of bacterial growth at 4 times MIC by counting formed colonies; format: functional, organism-based; conditions: time <= 4.0 hrs, TDE = time-dependent effect
# Escherichia coli [7] = assay: Antibacterial activity against Escherichia coli ATCC 25922 after 24 hrs in presence of 4.5 mM of KCl at by microtiter plate method; format: functional
# Klebsiella pneumoniae [8] = assay: Antibacterial activity against Klebsiella pneumoniae ATCC 13883 […] incubated for 24 hrs by microtiter plate method; format: functional
# Pseudomonas aeruginosa [9] = assay: Antibacterial activity against Pseudomonas aeruginosa ATCC 27883 incubated for 24 hrs by microtiter plate method; format: functional; conditions: Pseudomonas aeruginosa
# Staphylococcus aureus [10] = assay: Bactericidal activity against methicillin resistant Staphylococcus aureus ATCC BAA-1556 assessed as reduction of bacterial growth at 4 times MIC by counting formed colonies; format: functional, organism-based; conditions: time <= 4.0 hrs, TDE = time-dependent effect
# Escherichia coli [11] = assay: Antibacterial activity against Escherichia coli ATCC 25922 incubated for 24 hrs by microtiter plate method; format: functional; conditions: Escherichia coli
# Escherichia coli [12] = assay: Bactericidal activity against Escherichia coli ATCC BAA-2452 assessed as reduction of bacterial growth at MIC by counting formed colonies; format: functional, organism-based; conditions: time <= 4.0 hrs, TDE = time-dependent effect
# Acinetobacter baumannii = assay: Antibacterial activity against ciprofloxacin resistance Acinetobacter baumannii ATCC BAA1605 incubated for 24 hrs by microtiter plate method; format: functional
# Staphylococcus aureus [13] = assay: Bactericidal activity against methicillin resistant Staphylococcus aureus ATCC BAA-1556 assessed as time required for complete reduction of bacterial growth at MIC by counting formed colonies; format: functional
# Escherichia coli [14] = assay: Antibacterial activity against Escherichia coli ATCC 25922 after 24 hrs in presence of 150 mM NaCl by microtiter plate method; format: functional
# Pseudomonas aeruginosa [15] = assay: Antibacterial activity against imipenem resistant Pseudomonas aeruginosa ATCC BAA-1744 incubated for 24 hrs by microtiter plate method; format: functional
# Staphylococcus aureus [16] = assay: Antibacterial activity against Staphylococcus aureus ATCC 29213 incubated for 24 hrs by microtiter plate method; format: functional; conditions: Staphylococcus aureus, ATCC 29213, read-out: MIC
# Escherichia coli [17] = assay: Antibacterial activity against Escherichia coli ATCC 25922 after 24 hrs in presence of 2 mM CaCl2 at by microtiter plate method; format: functional
# Escherichia coli [18] = assay: Antibacterial activity against Escherichia coli ATCC 25922 incubated for 24 hrs; format: functional
# Escherichia coli [19] = assay: Antibacterial activity against Escherichia coli NDM-1-resistant ATCC BAA-2452 incubated for 24 hrs by microtiter plate method; format: functional
# Escherichia coli [20] = assay: Antibacterial activity against Escherichia coli ATCC 25922 after 24 hrs in presence of fetal bovine serum by microtiter plate method; format: functional
# Staphylococcus aureus [21] = assay: Bactericidal activity against methicillin resistant Staphylococcus aureus ATCC BAA-1556 assessed as time required for complete reduction of bacterial growth at 4 times MIC by counting formed colonies; format: functional
# Staphylococcus aureus [22] = assay: Antibacterial activity against methicillin resistant Staphylococcus aureus ATCC BAA-1556 incubated for 24 hrs by microtiter plate method; format: functional; conditions: Staphylococcus aureus, ATCC BAA-1556, 24 h, read-out: MIC
# [23] = Hemolytic activity in human RBC assessed as hemolysis incubated for 2 hrs by spectrophotometer analysis; format: toxicity, cell-based, Erythrocyte; conditions: human red blood cells (erythrocytes)
# [24] = ATCC 27883, 24 h, read-out: MIC
# [25] = ATCC 25922, 24 h, read-out: MIC
structure (smiles),measurement,setting,value
CC[C@H](C)CCCCC(=O)N[C@@H](CCN)C(=O)N[C@H](C(=O)N[C@@H](CCN)C(=O)N[C@H]1CCNC(=O)[C@H]([C@@H](C)O)NC(=O)[C@H](CCN)NC(=O)[C@H](CCN)NC(=O)[C@H](CC(C)C)NC(=O)[C@@H](Cc2ccccc2)NC(=O)[C@H](CCN)NC1=O)[C@@H](C)O (X1-[Dab]T[Dab][Dab][Dab][dF]L[Dab][Dab]T; lactam 4-C),MIC,Escherichia coli [1],0.7 µg/mL
same,MIC,Escherichia coli [2],1.5 µg/mL
same,Activity,Staphylococcus aureus [3],Tde
same,MIC,Pseudomonas aeruginosa [4],0.7 µg/mL
same,MIC,Klebsiella pneumoniae [5],1.5 µg/mL
same,Activity,Escherichia coli [6],Tde
same,MIC,Escherichia coli [7],0.7 µg/mL
same,MIC,Klebsiella pneumoniae [8],6.2 µg/mL
same,MIC,"Pseudomonas aeruginosa [9]; ATCC 27883, read-out: MIC",0.7 µg/mL
same,Activity,Staphylococcus aureus [10],Tde
same,MIC,"Escherichia coli [11]; ATCC 25922, read-out: MIC",0.7 µg/mL
same,Activity,Escherichia coli [12],Tde
same,MIC,Acinetobacter baumannii,0.7 µg/mL
same,Activity,Staphylococcus aureus [13],Active
same,MIC,Escherichia coli [14],0.7 µg/mL
same,MIC,Pseudomonas aeruginosa [15],0.7 µg/mL
same,MIC,Staphylococcus aureus [16],0.7 µg/mL
same,MIC,Escherichia coli [17],0.7 µg/mL
same,MBC,Escherichia coli [18],3.1 µg/mL
same,MIC,Escherichia coli [19],0.7 µg/mL
same,MIC,Escherichia coli [20],3.1 µg/mL
same,Activity,Staphylococcus aureus [21],Active
N=C(N)NCCC[C@@H]1NC(=O)[C@H](CCCNC(=N)N)NC(=O)[C@H](CCCNC(=N)N)NC(=O)[C@H](Cc2ccc3ccccc3c2)NC(=O)[C@H](Cc2ccc3ccccc3c2)NC(=O)[C@H](Cc2ccc3ccccc3c2)NC(=O)[C@H](CCCNC(=N)N)NC(=O)[C@H](CCCNC(=N)N)NC1=O (cyclo([2Nal][2Nal][2Nal]RRRRR)),MIC,Staphylococcus aureus [22],6.2 µg/mL
same,MIC,Pseudomonas aeruginosa [9]; [24],25 µg/mL
same,MIC,Escherichia coli [11]; [25],50 µg/mL
same,HC50 at 2 h,[23],90 µg/mL
same,MIC,Staphylococcus aureus [16],3.1 µg/mL
N=C(N)NCCC[C@@H]1NC(=O)[C@H](CCCNC(=N)N)NC(=O)[C@H](CCCNC(=N)N)NC(=O)[C@H](Cc2ccc3ccccc3c2)NC(=O)[C@H](Cc2ccc3ccccc3c2)NC(=O)[C@H](Cc2ccc3ccccc3c2)NC(=O)[C@H](Cc2ccc3ccccc3c2)NC(=O)[C@H](CCCNC(=N)N)NC1=O (cyclo([2Nal][2Nal][2Nal][2Nal]RRRR)),MIC,Staphylococcus aureus [22],6.2 µg/mL
same,MIC,Pseudomonas aeruginosa [9]; [24],50 µg/mL
same,MIC,Escherichia coli [11]; [25],25 µg/mL
same,HC50 at 2 h,[23],30 µg/mL
same,MIC,Staphylococcus aureus [16],3.1 µg/mL
N=C(N)NCCC[C@@H]1NC(=O)[C@H](CCCNC(=N)N)NC(=O)[C@H](CCCNC(=N)N)NC(=O)[C@H](C(c2ccccc2)c2ccccc2)NC(=O)[C@H](C(c2ccccc2)c2ccccc2)NC(=O)[C@H](CCCNC(=N)N)NC1=O (cyclo([Dip][Dip]RRRR)),MIC,Staphylococcus aureus [22],6.2 µg/mL
same,MIC,Pseudomonas aeruginosa [9]; [24],25 µg/mL
same,MIC,Escherichia coli [11]; [25],50 µg/mL
same,HC50 at 2 h,[23],110 µg/mL
same,MIC,Staphylococcus aureus [16],6.2 µg/mL
NCCCC[C@@H]1NC(=O)[C@H](CCCCN)NC(=O)[C@H](CCCCN)NC(=O)[C@H](C(c2ccccc2)c2ccccc2)NC(=O)[C@H](C(c2ccccc2)c2ccccc2)NC(=O)[C@H](C(c2ccccc2)c2ccccc2)NC(=O)[C@H](CCCCN)NC1=O (cyclo([Dip][Dip][Dip]KKKK)),MIC,Staphylococcus aureus [22],12.5 µg/mL
same,MIC,Pseudomonas aeruginosa [9]; [24],> 100 µg/mL
same,MIC,Escherichia coli [11]; [25],> 100 µg/mL
same,HC50 at 2 h,[23],165 µg/mL
same,MIC,Staphylococcus aureus [16],12.5 µg/mL
NCCCC[C@@H]1NC(=O)[C@H](CCCCN)NC(=O)[C@H](CCCCN)NC(=O)[C@H](C(c2ccccc2)c2ccccc2)NC(=O)[C@H](C(c2ccccc2)c2ccccc2)NC(=O)[C@H](C(c2ccccc2)c2ccccc2)NC(=O)[C@H](CCCCN)NC(=O)[C@H](CCCCN)NC1=O (cyclo([Dip][Dip][Dip]KKKKK)),MIC,Staphylococcus aureus [22],12.5 µg/mL
same,MIC,Pseudomonas aeruginosa [9]; [24],> 100 µg/mL
same,MIC,Escherichia coli [11]; [25],50 µg/mL
same,HC50 at 2 h,[23],180 µg/mL
same,MIC,Staphylococcus aureus [16],6.2 µg/mL
